Results on 36 compounds are retold here after patent US8778966B2, “Quinolinone derivatives as PARP and tank inhibitors” (Janssen Pharmaceutica, NV, priority 2007, dated 2014).

Where two headings read alike, the source gives them in different places. A value given as a limit tells only on which side of the number the result lay.

Common to all, as to assay type: cell-based, human
The test system of one assay is HCT116 cells. Description: Antiproliferative activity, Alamar Blue assay, HCT116 cells. On the set-up: key to HCT116 antiproliferative activity pIC50: pIC50 = -log IC50 (IC50: conc. reducing growth to 50% of control). As to conditions: for IC50: Homo sapiens, HCT-116, HCT116 cells, read-out: HCT116 antiproliferative activity pIC50 (converted). The method, boiled down:
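HCT116 cells seeded, adhered 24 h, then exposed to compound for 4 days; Alamar Blue (resazurin) added for 4 h at 37 °C, fluorescence read at 540/590 nm. Viability as % of untreated control, triplicate wells; IC50 by probit analysis, reported as pIC50.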
On the technique in general: Alamar Blue is a resazurin reagent that responds to reducing activity.

The subject of another assay is PC-3 cells. Put plainly: Antiproliferative activity, Alamar Blue assay, PC-3 cells. The note with it: for IC50: Homo sapiens, PC-3, PC3 cells, read-out: PC3 antiproliferative activity pIC50 (converted). The gist of the method:
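PC-3 cells seeded at 4.5×10^3 cells/ml, left to adhere 24 hr, then exposed to compound for 4 days. Resazurin (Alamar Blue) added for a further 24 hrs at 37° C; fluorescence read at 540/590 nm. Viability as % of untreated control, mean of 3 wells; IC50 by probit analysis, reported as pIC50.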

The subject of another assay is PC3 cells. Put plainly: EB1 Comet (microtubule disruption) assay. As to conditions: Homo sapiens, read-out: EB1 pLAC (converted). The method, boiled down: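 PC3 human prostate cancer cells exposed to compound for 1 h at 37 °C (0.6% DMSO final), methanol-fixed, immunostained for Eb1 and imaged at 20×. Value is the lowest active concentration (LAC): the concentration at which Eb1 foci are absent in at least 50% of treated cells.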

For the compound `CCc1cc2ccc([C@](C)(C#N)Cc3ccccc3)cc2[nH]c1=O` (single isomer, unassigned) [Compound 45], the IC50 in the assay on HCT116 cells and in the assay with PC-3 cells was over 10000 nM in each case. In the assay on PC3 cells (PC-3, 1 h, 1 hour treatment), the minimal effective concentration was over 10 µM.

For the compound `CCc1cc2ccc(C(C)(C#N)CC3COc4ccccc4O3)cc2[nH]c1=O` (single isomer, unassigned) [Compound 47], the “HCT116 antiproliferative activity pIC50” value with HCT116 cells (HCT116 cells) is on record as under 5. Also, the “PC3 antiproliferative activity pIC50” value in the assay with PC-3 cells (PC3 cells) was under 5.

Regarding `CCc1cc2ccc(C(C)(C#N)Cc3cccc(C#C[Si](C)(C)C)c3)cc2[nH]c1=O` (centres unmarked) [Compound 1], the IC50 in the assay on HCT116 cells (Alamar Blue) was 200 nM; in the assay with PC-3 cells (Alamar Blue) it was 631 nM. In the assay with PC3 cells (PC-3, 1 h, 1 hour treatment), the minimal effective concentration was 1 µM.

As for `CCc1cc2ccc(C(C)(C#N)Cc3cccc(CN(C)C)c3)cc2[nH]c1=O` (centres unmarked) [Compound 7], the IC50 is 2510 nM in the assay on HCT116 cells and 7940 nM in the assay on PC-3 cells. Further, the minimal effective concentration in the assay with PC3 cells (PC-3, 1 h, 1 hour treatment) was 3.16 µM.

`CCc1cc2ccc(C(C)(C#N)Cc3cccc(COC)c3)cc2[nH]c1=O` (centres unmarked) [Compound 8]: the IC50 in the assay on HCT116 cells and in the assay on PC-3 cells was 631 nM in each case. The minimal effective concentration with PC3 cells (PC-3, 1 h, 1 hour treatment) was 0.316 µM.

Take `CCc1cc2ccc(C(C)(C#N)Cc3cccc(CO)c3)cc2[nH]c1=O` (centres unmarked) [Compound 9]: the IC50 in the assay on HCT116 cells was 251 nM; in the assay on PC-3 cells, 631 nM. Moreover, the minimal effective concentration in the assay with PC3 cells (PC-3, 1 h, 1 hour treatment) was 1 µM.

Consider `CCc1cc2ccc(C(C#N)(Cc3ccccc3)CC3CC3)cc2[nH]c1=O` (centres unmarked) [Compound 28], for which the IC50 in the assay on HCT116 cells and in the assay on PC-3 cells was over 10000 nM in each case.

Take `CC(C#N)(Cc1ccccc1)c1ccc2cc(CO)c(=O)[nH]c2c1` (centres unmarked) [Compound 40]: the IC50 is 7940 nM in the assay on HCT116 cells and over 10000 nM in the assay with PC-3 cells.

With `CCc1cc2ccc(C(C)(C#N)Cc3c(F)ccc(C)c3F)cc2[nH]c1=O` (centres unmarked) [Compound 41], the IC50 in the assay on HCT116 cells and in the assay on PC-3 cells was 631 nM throughout. For the same compound, in the assay on PC3 cells (PC-3, 1 h, 1 hour treatment), the minimal effective concentration was 0.316 µM.

With `CCc1cc2ccc(C(C)(C#N)Cc3nc(OC)cc(OC)n3)cc2[nH]c1=O` (centres unmarked) [Compound 43], the IC50 with HCT116 cells and with PC-3 cells was 158 nM in each case.

`CCc1cc2ccc(C(C)(C#N)Cc3cccc(Br)c3)cc2[nH]c1=O` (centres unmarked) [Compound 49]: the IC50 with HCT116 cells is 200 nM; in the assay with PC-3 cells, 158 nM. Moreover, in the assay on PC3 cells (PC-3, 1 h, 1 hour treatment), the minimal effective concentration is 0.316 µM.

As for `CCOP(=O)(OCC)c1cccc(CC(C)(C#N)c2ccc3cc(CC)c(=O)[nH]c3c2)c1` (centres unmarked) [Compound 50], the results for the IC50 in the assay on HCT116 cells and in the assay on PC-3 cells were 1260 nM and 794 nM, respectively. In addition, the minimal effective concentration in the assay with PC3 cells (PC-3, 1 hour treatment) is 0.316 µM.

As to `CCc1cc2ccc(C(C)(C#N)Cc3cccc(C#N)c3)cc2[nH]c1=O` (centres unmarked) [Compound 51], the IC50 is 126 nM in the assay with HCT116 cells and 200 nM with PC-3 cells. In addition, the minimal effective concentration in the assay with PC3 cells (PC-3, 1 h, 1 hour treatment) was 0.316 µM.

On to `CCc1cc2ccc(C(C)(C#N)CCOc3ccc([N+](=O)[O-])cc3)cc2[nH]c1=O` (centres unmarked) [Compound 54], for which the IC50 with HCT116 cells is 501 nM; in the assay on PC-3 cells, 794 nM. The minimal effective concentration in the assay on PC3 cells (PC-3, 1 h, 1 hour treatment) is 0.316 µM.

With `CCc1cc2ccc(C(C)(C#N)Cc3cccc(CN4CCN(C)CC4)c3)cc2[nH]c1=O` (centres unmarked) [Compound 57], the IC50 in the assay on HCT116 cells and with PC-3 cells was over 10000 nM throughout.

With `CCc1cc2ccc(C(C)(C#N)Cc3cccc(CN4CCOCC4)c3)cc2[nH]c1=O` (centres unmarked) [Compound 58], the IC50 is 501 nM in the assay on HCT116 cells and 2000 nM in the assay on PC-3 cells. Moreover, the minimal effective concentration in the assay with PC3 cells (PC-3, 1 h, 1 hour treatment) was 3.16 µM.

As for `CCc1cc2ccc(C(C)(C#N)Cc3cccc(CNC)c3)cc2[nH]c1=O` (centres unmarked) [Compound 59], the IC50 is 3160 nM in the assay on HCT116 cells and 10000 nM in the assay on PC-3 cells. The minimal effective concentration with PC3 cells (PC-3, 1 h, 1 hour treatment) was 10 µM.

Turning to `CCc1cc2ccc(C(C)(C#N)Cc3cccc(CNCCOC)c3)cc2[nH]c1=O` (centres unmarked) [Compound 60], the values for the IC50 in the assay on HCT116 cells and in the assay with PC-3 cells were 6310 nM and 7940 nM, respectively.

`CCc1cc2ccc(C(C)(C#N)Cc3cccc(CNCCN4CCOCC4)c3)cc2[nH]c1=O` (centres unmarked) [Compound 61]: the IC50 in the assay with HCT116 cells and with PC-3 cells was over 10000 nM throughout.

In the case of `CCc1cc2ccc(C(C)(C#N)Cc3cccc(C(=O)NCCOC)c3)cc2[nH]c1=O` (centres unmarked) [Compound 62], the IC50 in the assay on HCT116 cells and with PC-3 cells was 7940 nM each time.

As to `CCc1cc2ccc(C(C)(C#N)Cc3cccc(C(=O)N(C)C)c3)cc2[nH]c1=O` (centres unmarked) [Compound 63], the IC50 in the assay with HCT116 cells is 1580 nM; with PC-3 cells, 3160 nM. The minimal effective concentration with PC3 cells (PC-3, 1 h, 1 hour treatment) was 3.16 µM.

Regarding `CCc1cc2ccc(C(C)(C#N)Cc3cccc(N4CCNCC4)c3)cc2[nH]c1=O` (centres unmarked) [Compound 64], the IC50 in the assay with HCT116 cells and in the assay with PC-3 cells was over 10000 nM in each case.

In the case of `CCc1cc2ccc(C(C)(C#N)Cc3cccc(OCC4CC4)c3)cc2[nH]c1=O` (centres unmarked) [Compound 67], the IC50 is 1580 nM with HCT116 cells and 1260 nM in the assay on PC-3 cells. Also, the minimal effective concentration with PC3 cells (PC-3, 1 h, 1 hour treatment) is 0.316 µM.

As to `CCc1cc2ccc(C(C)(C#N)Cc3cccc(OCCCN4CCOCC4)c3)cc2[nH]c1=O` (centres unmarked) [Compound 68], the IC50 in the assay on HCT116 cells is 6310 nM; in the assay on PC-3 cells it was 7940 nM.

Take `CCc1cc2ccc(C(C)(C#N)Cc3cccc(OCCCN4CCN(C)CC4)c3)cc2[nH]c1=O` (centres unmarked) [Compound 69]: the IC50 in the assay with HCT116 cells and in the assay on PC-3 cells was 7940 nM each time.

As to `Cc1cc2ccc(C(C)(C#N)Cc3noc(-c4cccc(C(F)(F)F)c4)n3)cc2[nH]c1=O` (centres unmarked) [Compound 70], the IC50 in the assay on HCT116 cells is 631 nM; in the assay on PC-3 cells, 2510 nM. Besides, in the assay on PC3 cells (PC-3, 1 h, 1 hour treatment), the minimal effective concentration was 3.16 µM.

In the case of `Cc1cc2ccc(C(C)(C#N)Cc3cc4ccccc4s3)cc2[nH]c1=O` (centres unmarked) [Compound 71], the IC50 was 5010 nM in the assay with HCT116 cells and 2000 nM with PC-3 cells. In the assay with PC3 cells (PC-3, 1 h, 1 hour treatment), the minimal effective concentration is 1 µM.

Turning to `Cc1cc2ccc(C(C)(C#N)Cc3ccc(Cl)s3)cc2[nH]c1=O` (centres unmarked) [Compound 72], the IC50 in the assay with HCT116 cells was 794 nM; with PC-3 cells it was 2000 nM. Further, the minimal effective concentration in the assay with PC3 cells (PC-3, 1 h, 1 hour treatment) was 0.316 µM.

`Cc1cc2ccc(C(C)(C#N)Cc3ccc(C(F)(F)F)o3)cc2[nH]c1=O` (centres unmarked) [Compound 73]: the IC50 with HCT116 cells is 794 nM; with PC-3 cells, 2000 nM. In the assay on PC3 cells (PC-3, 1 h, 1 hour treatment), the minimal effective concentration is 1 µM.

Turning to `Cc1cc2ccc(C(C)(C#N)Cc3cccc4cccnc34)cc2[nH]c1=O` (centres unmarked) [Compound 74], the IC50 in the assay with HCT116 cells is 501 nM; in the assay with PC-3 cells, 1000 nM. Besides, in the assay on PC3 cells (PC-3, 1 h, 1 hour treatment), the minimal effective concentration was 3.16 µM.

In the case of `Cc1cc2ccc(C(C)(C#N)Cc3ccccc3)cc2[nH]c1=O` (centres unmarked) [Compound 76], the IC50 was 251 nM in the assay with HCT116 cells and 631 nM in the assay on PC-3 cells. The minimal effective concentration in the assay on PC3 cells (PC-3, 1 h, 1 hour treatment) was 1 µM.

Turning to `CCc1cc2ccc(C(C)(C#N)Cc3c(C)c(C)cc(C)c3C)cc2[nH]c1=O` (centres unmarked) [Compound 88], the IC50 in the assay on HCT116 cells is over 10000 nM; in the assay with PC-3 cells, 10000 nM.

In the case of `CCc1cc2ccc(C(C)(C#N)Cc3c(C)c(C)c(C)c(C)c3C)cc2[nH]c1=O` (centres unmarked) [Compound 89], the IC50 in the assay on HCT116 cells and in the assay on PC-3 cells was over 10000 nM throughout.

On to `CCc1cc2ccc(C(C)(C#N)Cc3nncn3C)cc2[nH]c1=O` (centres unmarked) [Compound 93], for which the values for the IC50 with HCT116 cells and with PC-3 cells were over 10000 nM and 10000 nM, respectively.

Consider `CCc1cc2ccc(C(C)(C#N)Cc3cccc4nnn(C)c34)cc2[nH]c1=O` (centres unmarked) [Compound 94], for which the figures for the IC50 in the assay with HCT116 cells and with PC-3 cells were 6310 nM and over 10000 nM, respectively.

Turning to `CCc1cc2ccc(C(C)(C#N)Cc3cccnc3)cc2[nH]c1=O` (centres unmarked) [Compound 97], the figures for the IC50 in the assay with HCT116 cells and with PC-3 cells were 2510 nM and over 10000 nM, respectively.
